In US8815860B2, “Methods for preventing oxidative stress injury of a tissue by a Folate-TEMPOL conjugate” (Emory University, priority 2009, dated 2014):

Experiments:
[1] = test system: human proximal tubule (HK-2) cells; test: Superoxide concentration in LPS-treated cultured HK-2 cells measured by DHE-HPLC; assay type: cell-based; settings: LPS treated HK-2 cells, normalized to protein concentration, n=3 (FIG. 1)
Method: Superoxide concentration was normalized to protein concentration. Data represent mean and SEM.
Typically, cultured human proximal tubule (HK-2) cells were treated with LPS to induce superoxide free radical formation. The level of superoxide is indicated by the formation of 2-hydroxyethidium as described, for example by Zielonka et al., (2008) Nat. Protocols 3: 8-21, incorporated herein by reference in its entirety.

[2] = Tissue concentration quantified by ESR in mice after 48 hour intravenous infusion; assay type: in vivo; settings: kidney, ESR (FIG. 5F)
From the text: (§1) Data represent mean and SEM.

[3] = test system: C57bl/6J mice, bilateral renal ischemia-reperfusion; test: 30 minute bilateral renal ischemia-reperfusion in mice; assay type: in vivo; settings: for urinary albumin excretion: 24 hour urine, collected 48 hours following 30 minute bilateral renal ischemia-reperfusion (FIG. 2); for plasma creatinine levels: 48 hours following 30 minute bilateral renal ischemia-reperfusion (FIG. 3); for plasma blood urea nitrogen (BUN): 48 hours following 30 minutes bilateral renal ischemia-reperfusion (FIG. 4); for kidney superoxide (hydrocyanine-3 fluorescence, DHE-HPLC, nitrotyrosine staining): mouse kidney after 30 minutes renal ischemia (FIG. 6)
Method: Samples were collected 48 hours following 30 minute bilateral renal ischemia-reperfusion. Data represent mean and SEM.
as §1
BUN was measured 48 hours following 30 minutes bilateral renal ischemia-reperfusion. Data represent mean and SEM.
The effects of the Folate-TEMPOL conjugate of the present disclosure on renal ischemic-reperfusion injury prevention were observed by intravenously administering TEMPOL or Folate-TEMPOL. The renal artery was then clamped for about 30 mins, followed by 48 hours of reperfusion. Parameters measured as indicators of renal tubule injury included creatinine, BUN, and albumin levels both before and after ischemia. Also measured were the TEMPOL and Folate-TEMPOL concentrations in the plasma and the kidney.

[4] = test system: human proximal tubule (HK-2) cells; test: Uptake into HK-2 cells quantified by electron spin resonance (ESR); assay type: cell-based; settings: after incubation with HK-2 cells, ESR (FIG. 5D, 5E)
[5] = listed as Folate-TEMPOL conjugate

| Structure (SMILES) | superoxide concentration in cultured HK-2 cells [1] | tissue tempol and tempol-folate concentration [2] | urinary albumin excretion [3] | urinary albumin excretion [3, 5] | plasma creatinine levels [3] | plasma creatinine levels [3, 5] | plasma blood urea nitrogen (BUN) [3] | plasma blood urea nitrogen (BUN) [3, 5] | renal structure, hematoxylin and eosin (H&E) staining of kidney sections ([3]; kidney sections harvested 48 hours post-ischemia (FIG. 7)) | kidney superoxide (hydrocyanine-3 fluorescence, DHE-HPLC, nitrotyrosine staining) [3] | kidney superoxide (hydrocyanine-3 fluorescence, DHE-HPLC, nitrotyrosine staining) [3, 5] | HK-2 cell concentration of tempol and tempol-folate [4] | HK-2 cell concentration of tempol and tempol-folate ([4]; listed as Folate-TEMPOL) | superoxide concentration in cultured HK-2 cells ([1]; listed as Folate-TEMPOL) |
| --- | --- | --- | --- | --- | --- | --- | --- | --- | --- | --- | --- | --- | --- | --- |
| CC1(C)CC(O)CC(C)(C)N1[O] [Tempol, 4-hydroxy-2,2,6,6-tetramethylpiperidine 1-oxyl] | effectively scavenged superoxide production |  |  |  |  |  |  |  |  |  |  |  |  |  |
| CC1(C)CC(NC(=O)CCC(NC(=O)c2ccc(NCc3cnc4nc(N)nc(O)c4n3)cc2)C(=O)O)CC(C)(C)N1[O] (stereo not drawn) [tempol-folate] | effectively scavenged superoxide production | becomes more concentrated in cultured proximal tubule cells and in vivo in kidneys of mice compared with tempol | prevents kidney injury more effectively than free tempol | the reduction was greater than if TEMPOL alone was used | preserves glomerular filtration rate from ischemia-reperfusion more effectively than unconjugated tempol | the reduction was greater than if TEMPOL alone was used | proximal tubule function is protected from ischemic injury by tempol-folate compared with free tempol | the reduction was greater than if TEMPOL alone was used | renal structure is protected from renal ischemia-reperfusion injury by tempol-folate treatment more efficiently than by ternpol treatment | more effective at scavenging superoxide in the kidney | significantly reduced | becomes more concentrated in cultured proximal tubule cells | accumulates in cultured proximal tubule cells to a greater extent than un-conjugated Tempol | inhibits superoxide as efficiently as TEMPOL alone |
